Several values for one entry are separate records, joined by “and”; a condition that tells them apart may be missing. Equal entries are not always repeated.
Tests used:
[1] = tested on: MDA-MB-231 (triple-negative breast adenocarcinoma); assay: MTT cell viability assay, MDA-MB-231; format: cell-based, Human; details: for IC50: MTT, 24 h of incubation, read-out: IC50 ± SD on MDA-MB-231
Procedure: (§1) Cell viability studies were determined by the MTT assay for complexes 1–8 toward MCF7 (breast adenocarcinoma), MDA-MB-231 (triple-negative breast adenocarcinoma), MG-63 (osteosarcoma), and HT-29 (colorectal carcinoma) after 24 h of incubation with new ruthenium compounds. Cisplatin was used as antitumor clinical reference. The three solid tumors selected for the cell viability study were chosen due to high incidence and the low efficacy of the current treatments. The two breast cancer cell lines used in this study represent two of the most relevant subtypes of breast cancer (MCF7: receptor-estrogen-positive breast cancer subtype; MDA-MB-231: triple-negative breast cancer subtype).
(§2) Human breast cancer cell lines (MCF-7 and MDA-MB-231), human bone cancer cell line (MG-63), and human colorectal cancer cell line (HT-29) were grown in Dulbecco’s modified Eagle’s medium (DMEM) containing 10% fetal bovine serum (FBS), 100 IU/mL penicillin, and 100 μg/mL streptomycin at 37 °C in 5% CO2 atmosphere. These cancer cell lines were grown in a […] until they reached 70–80% confluence. Then, the cells were subcultured using TrypLE TM. For experiments, cells were grown in multi-well plates. Dulbecco’s modified Eagle’s medium (DMEM) and TrypLE^TM were purchased from Gibco (Gaithersburg, MD, USA), and fetal bovine serum (FBS) was purchased from Internegocios (Argentina). After 24 h, the monolayers were washed with DMEM and incubated under different conditions according to the experiments. Tissue culture materials were purchased from Corning (Princeton, NJ, USA).
(§3) The 3-(4,5-dimethylthiazol-2-yl)-2,5-diphenyltetrazolium bromide (MTT) assay was performed according to Mosmann. Briefly, cells were seeded in a 96-well dish, allowed to attach for 24 h, and treated with different concentrations of complexes […] (2.5–100 µM) at 37 °C for 24 h. Afterward, the medium was changed and the cells were incubated with 0.5 mg/mL MTT under normal culture conditions for 3 h. Cell viability was marked by conversion of the tetrazolium salt MTT to a colored formazan by mitochondrial dehydrogenases. Color development was measured spectrophotometrically with a microplate reader multiskan FC (Thermo scientific) at 570 nm after cell lysis in DMSO (100 µL per well). Cell viability was plotted as the percentage of the control value.

[2] = tested on: MCF7 (breast adenocarcinoma); assay: MTT cell viability assay, MCF7; format: cell-based, Human; details: 24 h of incubation, read-out: IC50 ± SD on MCF7
Procedure: as §1, §2, §3

[3] = tested on: HT-29 (colorectal carcinoma); assay: MTT cell viability assay, HT-29; format: cell-based, Human; details: for IC50: 24 h of incubation, read-out: IC50 ± SD on HT-29
Procedure: as §1, §2, §3

MG-63 (osteosarcoma) = assay: MTT cell viability assay, MG-63; format: cell-based, Human; details: 24 h of incubation, read-out: IC50 ± SD on MG-63
Procedure: as §1, §2, §3

[4] = target: Glutathione S-transferase from horse liver (GST); assay: GST inhibition assay; format: biochemical; details: for Ki: Dixon plots, substrate 200, 400, 800 μM; for IC50 / GST IC50: substrate 1-chloro-2,4-dinitrobenzene, pH 6.5, 25 °C
Procedure: The activity of GST was measured according to the method described by Habig et al. (1974). Stock solutions of 1–8 (1 mg/mL) were prepared in 100% methanol (MeOH). Then, stock solutions of 1–8 and negative controls were added to the wells and progressively diluted in 100 mM sodium phosphate buffer (pH 6.5) at a final volume of 50 μL. 1-Chloro-2,4-dinitrobenzene (Sigma-Aldrich Co., St. Louis, MO, USA) was dissolved in EtOH to obtain a 50 mM solution, then diluted with 100 mM sodium phosphate buffer (pH 6.5) to a final concentration of 4 mM. This solution (50 μL) and solution of 2 mM reduced glutathione (100 μL), dissolved in the same buffer were added into the microtiter plate wells. Glutathione S-transferase from horse liver (GST; Sigma-Aldrich Co., St. Louis, MO, USA) was used as the source of enzyme and dissolved in 100 mM sodium phosphate buffer (pH 6.5). 50 μL of enzyme solution was added into wells to start the reaction. The final enzyme concentration was 0.044 U/mL. A blank reaction was performed with the appropriate dilution of MeOH. The reaction was followed spectrophotometrically at 340 nm and at 25 °C for 4 min using a Cytation 3 cell imaging multi-mode reader from BioTek (BioTek, Winooski, VT, USA). Each measurement was repeated at least three times. For determination of inhibitory constants (Ki), the kinetics were monitored using three different final substrate concentrations (200, 400, and 800 μM, respectively).

[5] = tested on: MCF7, MDA-MB-231, MG-63, and HT-29 cell lines; assay: MTT cell viability assay, all cell lines tested; format: cell-based, Human; details: 24 h, span over all cell lines, read-out: IC50 in all cancer cell lines tested
Procedure: as §1
Human breast cancer cell lines (MCF-7 and MDA-MB-231), human bone cancer cell line (MG-63), and human colorectal cancer cell line (HT-29) were grown in Dulbecco’s modified Eagle’s medium (DMEM) containing 10% fetal bovine serum (FBS), 100 IU/mL penicillin, and 100 μg/mL streptomycin at 37 °C in 5% CO2 atmosphere. These cancer cell lines were grown in a […] until they reached 70–80% confluence. […]
The 3-(4,5-dimethylthiazol-2-yl)-2,5-diphenyltetrazolium bromide (MTT) assay was performed according to Mosmann. […] Color development was measured spectrophotometrically with a microplate reader multiskan FC (Thermo scientific) at 570 nm after cell lysis in DMSO (100 µL per well). […]

## N.N.[Cl][Pt][Cl] [Cisplatin, reference compound]
[1]
  IC50: 131 ± 18 µM
[2]
  IC50: 42 ± 3.2 µM
[3]; MTT
  IC50: 180 ± 6 µM
MG-63 (osteosarcoma)
  IC50: 39 ± 1.8 µM

## Cc1ccc(C(C)C)cc1.[Cl-].[O-]n1ccccc1=S.[Ru+2] [Compound 1, [(η^6-cymene)(Ru)(pyrithionato)Cl]]
[4]
  Ki: 750 nM
  IC50: 3.15 ± 2.5 µM
[1]
  IC50: > 100 µM
[2]
  IC50: > 100 µM
[3]; MTT
  IC50: > 100 µM
MG-63 (osteosarcoma)
  IC50: > 100 µM

## C1N2CN3CN1CP(C2)C3.Cc1ccc(C(C)C)cc1.F[P-](F)(F)(F)(F)F.[O-]n1ccccc1=S.[Ru+2] [Compound 2, [(η^6-cymene)(Ru)(pyrithionato)(pta)]PF6]
[4]
  GST IC50: / (no inhibitory activity in tested concentration range (<125 µg/mL))
[1]
  IC50: > 100 µM
[2]
  IC50: > 100 µM
[3]; MTT
  IC50: > 100 µM
MG-63 (osteosarcoma)
  IC50: > 100 µM

## CCO[P](OCC)(OCC)[Ru+]1[O]N2C=CC=CC2=[S]1.Cc1ccc(C(C)C)cc1.F[P-](F)(F)(F)(F)F [Compound 4, [(η^6-p-cym)Ru(κ^2-O,S-C5H4NOS)(P(OEt)3)]PF6]
[4]
  IC50: 59.5 ± 0.9 µM
[1]
  IC50: > 100 µM
[2]
  IC50: 45 µM and 45.5 µM
[3]; MTT
  IC50: > 100 µM
MG-63 (osteosarcoma)
  IC50: > 100 µM

## C1=CC2=[S][Ru+]([P](c3ccccc3)(c3ccccc3)c3ccccc3)[O]N2C=C1.Cc1ccc(C(C)C)cc1.F[P-](F)(F)(F)(F)F [Compound 6, [(η^6-p-cym)Ru(κ^2-O,S-C5H4NOS)(PPh3)]PF6]
[4]
  Ki: 1300 nM
  IC50: 11.8 ± 1.1 µM
[1]
  IC50: 10.8 ± 1 µM
[1]; versus cisplatin
  IC50 fold lower than cisplatin on MDA-MB-231 cells: twelve-fold
[2]
  IC50: 21.2 ± 3.2 µM
[3]; MTT
  IC50: 30.2 ± 1.4 µM
[3]; versus cisplatin
  IC50 fold lower than cisplatin on HT-29 cells: six-fold
MG-63 (osteosarcoma)
  IC50: 21.2 ± 1.7 µM

## C1=CC2=[S][Ru+]([P](Oc3ccccc3)(Oc3ccccc3)Oc3ccccc3)[O]N2C=C1.Cc1ccc(C(C)C)cc1.F[P-](F)(F)(F)(F)F [Compound 7, [(η^6-p-cym)Ru(κ^2-O,S-C5H4NOS)(P(OPh)3)]PF6]
[4]
  Ki: 3670 nM
  IC50: 2.88 ± 0.9 µM
[1]
  IC50: 18 ± 1.7 µM
[2]
  IC50: 33.7 ± 6.3 µM
[3]; MTT, 24 h
  anticancer effect on colorectal cancer cells: did not exert anticancer effect
[3]; MTT
  IC50: > 100 µM
MG-63 (osteosarcoma)
  IC50: 28.2 ± 2.5 µM

## C1=CC2=[S][Ru+]([As](c3ccccc3)(c3ccccc3)c3ccccc3)[O]N2C=C1.Cc1ccc(C(C)C)cc1.F[P-](F)(F)(F)(F)F [Compound 8, [(η^6-p-cym)Ru(κ^2-O,S-C5H4NOS)(AsPh3)]PF6]
[5]
  IC50: 35 to 50 µM
[4]
  Ki: 740 nM
  IC50: 2.15 ± 0.4 µM
[1]
  IC50: 35.8 ± 11.4 µM
[2]
  IC50: 35.3 ± 12.1 µM
[3]; MTT
  IC50: 40.8 ± 8.5 µM
MG-63 (osteosarcoma)
  IC50: 50.3 ± 2.5 µM

## [(η^6-p-cym)Ru(κ^2-O,S-C5H4NOS)(cap)]PF6 [Compound 3]
[4]
  GST IC50: / (no inhibitory activity in tested concentration range (<125 µg/mL))
[1]
  IC50: > 100 µM
[2]
  IC50: > 100 µM
[3]; MTT
  IC50: > 100 µM
MG-63 (osteosarcoma)
  IC50: > 100 µM

From publication PMC10058425, “Exploring pta Alternatives in the Development of Ruthenium–Arene Anticancer Compounds” (Molecules, 2023)
